The values that follow are results of earlier work, collected in US20250205506A1, “Treatment of viral infection” (priority 2023, published 2025).

Data set [1] concerns recurrent herpes labialis. To be noted: for Reduction of healing time: tablets, otherwise healthy people.
The next data set has as its system herpes infections. The settings on record: orally administered; red light from a HeNe laser.
In a further data set the test system is herpes zoster. The settings on record: intravenously administered; golden light (565 nm yellow + 630 nm red) or red light to the affected area.

SMILES strings stand for the structures.

Take `CC(C)[C@H](N)C(=O)OCCOCn1cnc2c(=O)[nH]c(N)nc21` [valacyclovir]: the “Reduction of healing time” value in data set [1] is “reduce healing time by about one day”. Besides, the “Preventative treatment of herpes” value in data set [1] (taken once daily) was “effective preventative treatment for herpes reducing frequency and severity of outbreaks”.
Consider `CC(=O)OCC(CCn1cnc2cnc(N)nc21)COC(C)=O` [famciclovir], for which the “Reduction of healing time” value in data set [1] is reported as “reduce healing time by about one day”.
In the case of `Nc1nc2c(ncn2COCCO)c(=O)[nH]1` [acyclovir, 9-(2-hydroxyethoxymethyl) guanine], the “Combined effect with red light compared to acyclovir alone” value in the data set on herpes infections is recorded as “improvements over acyclovir alone”. In addition, the “Combined effect with light compared to acyclovir alone” value with herpes zoster is on record as “improvement over acyclovir alone”. Further, the “Reduction of healing time” value in data set [1] is on record as “reduce healing time by about one day”.
